Paper PMC9469100, “Turning Nonselective Inhibitors of Type I Protein Arginine Methyltransferases into Potent and Selective Inhibitors of Protein Arginine Methyltransferase 4 through a Deconstruction–Reconstruction and Fragment-Growing Approach” (Journal of Medicinal Chemistry, 2022)
Like-named read-outs stand apart in the source and are kept apart here.

Columns and labels:
PRMT1 = PRMT1 (Homo sapiens, UniProt Q99873); experiment: AlphaLISA PRMT1 activity assay (H4R3me); conditions: for IC50: AlphaLISA, hPRMT1, 10-concentration mode, threefold dilutions starting at 100 μM; for LE: ligand efficiency calculated from PRMT1 IC50 as a surrogate for KD
Method: Then, we resolved to determine their effect on the catalytic activity of human recombinant PRMT1, chosen as representative of class I PRMTs. […] PRMT1 activity assays were performed by taking advantage of the AlphaLISA homogeneous proximity assay.
The reaction was incubated for 60 min, and then it was stopped by the addition of 5 μL of antimethyl-histone H4 arginine 3 (H4R3me) AlphaLISA acceptor beads (PerkinElmer, #AL150) (final concentration, 20 μg/mL) diluted in Epigenetic Buffer 1X (PerkinElmer, #AL008).
For each incubation step, the OptiPlate was sealed with protective foil to prevent evaporation and contamination. Donor and acceptor beads were added in subdued light.
The 100% activity (positive control) was reached using the vehicle (DMSO) while the 0% activity (negative control) was obtained without the protein. Data were analyzed using Excel software. Values obtained for each compound are mean ± SD determined for three separate experiments.

[1] = target: T1, human PRMT4 (full length) (Homo sapiens, UniProt Q86X55); experiment: SPR binding to immobilized PRMT4
T1 construct: Full-length recombinant PRMT4 (Active motif, # 81107); purchased Active motif # 81107
T1 sequence (Q86X55 1-608): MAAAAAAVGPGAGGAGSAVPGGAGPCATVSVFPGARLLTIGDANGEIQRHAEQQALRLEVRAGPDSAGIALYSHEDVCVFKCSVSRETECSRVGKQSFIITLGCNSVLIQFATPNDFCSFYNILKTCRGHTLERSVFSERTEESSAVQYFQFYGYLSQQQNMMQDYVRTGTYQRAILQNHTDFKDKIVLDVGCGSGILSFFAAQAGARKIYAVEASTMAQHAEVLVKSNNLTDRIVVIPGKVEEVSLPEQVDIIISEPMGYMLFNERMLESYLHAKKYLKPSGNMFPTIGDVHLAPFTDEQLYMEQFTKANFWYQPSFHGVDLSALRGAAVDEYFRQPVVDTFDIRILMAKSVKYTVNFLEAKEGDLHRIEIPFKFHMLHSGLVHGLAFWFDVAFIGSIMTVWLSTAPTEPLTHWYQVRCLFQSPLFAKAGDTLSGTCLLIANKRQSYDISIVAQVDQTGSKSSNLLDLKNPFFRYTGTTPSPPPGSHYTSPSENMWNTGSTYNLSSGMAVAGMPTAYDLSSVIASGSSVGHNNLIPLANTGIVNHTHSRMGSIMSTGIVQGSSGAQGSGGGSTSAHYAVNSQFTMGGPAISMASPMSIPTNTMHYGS
Method: To this aim, human PRMT4 (full length) was covalently immobilized on a sensor chip surface using an amine-coupling approach, and the three compounds were injected at different concentrations over the protein surface. To reduce false positives from detergent-sensitive, nonspecific aggregation-based binding, detergents (0.05% Tween-20) were added to the running buffer in all experiments.
SPR experiments were performed on a Biacore T200 biosensor (Cytiva). PBS buffer (phosphate-buffered saline, pH 7.4) supplemented with 0.05% Tween-20 was used as the running buffer. […] One flow cell was left empty for background subtractions. […] Each compound was tested in […], prepared starting from 640 to 10 nM. Binding experiments were performed at 25 °C by using a flow rate of 30 μL/min, with 90 s monitoring of association and 90 s monitoring of dissociation. Regeneration of the surfaces was performed, when necessary, by a 10 s injection of 5 mM NaOH. […] The corrected sensorgrams for each compound were fitted simultaneously using a 1:1 Langmuir model to obtain equilibrium dissociation constants (KD) and kinetic dissociation (koff) and association (kon) constants.

[2] = read-out: % PRMT1 residual activ. @ 100 μM
[3] = read-out: % PRMT1 residual activity at 100 uM

PRMT1, sequence (Q99873 whole entry): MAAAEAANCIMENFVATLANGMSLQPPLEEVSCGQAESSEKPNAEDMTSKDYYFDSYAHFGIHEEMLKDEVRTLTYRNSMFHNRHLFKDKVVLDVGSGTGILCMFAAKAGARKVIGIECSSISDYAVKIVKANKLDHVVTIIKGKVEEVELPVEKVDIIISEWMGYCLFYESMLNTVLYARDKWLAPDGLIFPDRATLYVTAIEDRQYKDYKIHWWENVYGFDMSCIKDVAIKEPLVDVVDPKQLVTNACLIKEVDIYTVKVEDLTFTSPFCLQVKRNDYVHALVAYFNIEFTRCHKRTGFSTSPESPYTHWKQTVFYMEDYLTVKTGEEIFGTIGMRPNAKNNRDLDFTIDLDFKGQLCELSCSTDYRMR

Row | remaining activity at 100 µM (PRMT1; [2]) | remaining activity at 100 µM (PRMT1; [3]) | Compound | also measured
1 | 0.4 ± 0.1% | 0.4 ± 0.1% | COC(=O)c1cc(O)c2cc(NC(=O)NCCCNC(=N)N)ccc2c1 [7a, Methyl 6-(3-(3-Guanidinopropyl)ureido)-4-hydroxy-2-naphthoate] | IC50 (PRMT1): 1.6 µM; LE (PRMT1): 0.31
2 | -0.91 ± 0.1% | -0.91 ± 0.1% | COC(=O)c1cc(O)c2cc(NC(=O)NCCCCCNC(=N)N)ccc2c1 [7c, Methyl 6-(3-(5-Guanidinopentyl)ureido)-4-hydroxy-2-naphthoate] | IC50 (PRMT1): 1.2 µM; LE (PRMT1): 0.30
3 | 0.2 ± 0.1% | 0.2 ± 0.1% | CNC(=N)NCCCNC(=O)Nc1ccc2cc(C(=O)OC)cc(O)c2c1 [7d, Methyl 4-Hydroxy-6-(3-(3-(3-methylguanidino)propyl)ureido)-2-naphthoate] | IC50 (PRMT1): 0.4 µM; LE (PRMT1): 0.33
4 | 65.6 ± 2.1% | 65.6 ± 2.1% | COC(=O)c1cc(O)c2cc(NC(=O)NCCCn3ccnc3)ccc2c1 [7f, Methyl 6-(3-(3-(1H-Imidazol-1-yl)propyl)ureido)-4-hydroxy-2-naphthoate] | 
5 | 31.5 ± 3.1% | 31.5 ± 3.1% | N=C(N)NCCCCNC(=O)Nc1ccc2cc(C(=O)O)cc(O)c2c1 [8a, 6-(3-(4-Guanidinobutyl)ureido)-4-hydroxy-2-naphthoic Acid] | 
6 | 36.9 ± 10.5% | 36.9 ± 10.5% | O=C(NCCCn1ccnc1)Nc1ccc2cc(C(=O)O)cc(O)c2c1 [8b, 6-(3-(3-(1H-Imidazol-1-yl)propyl)ureido)-4-hydroxy-2-naphthoic Acid] | 
7 | 92.1 ± 15.8% | 92.1 ± 15.8% | COC(=O)c1cc(O)c2cc(NC(=O)[C@@H](N)CCSC)ccc2c1 [9c, Methyl (S)-6-(2-Amino-4-(methylthio)butanamido)-4-hydroxy-2-naphthoate] | 
8 | 75.9 ± 4.8% | 75.9 ± 4.8% | COC(=O)c1cc(O)c2cc(NC(=O)[C@H](CCSC)NC(=O)Nc3ccc(OC)cc3)ccc2c1 [9d, Methyl (S)-4-Hydroxy-6-(2-(3-(4-methoxyphenyl)ureido)-4-(methylthio)butanamido)-2-naphthoate] | 
9 | 87.1 ± 2.9% | 87.1 ± 2.9% | COC(=O)c1cc(O)c2cc(NC(=O)CNC(=O)Nc3ccc(OC)cc3)ccc2c1 [10c, Methyl 4-Hydroxy-6-(2-(3-(4-methoxyphenyl)ureido)acetamido)-2-naphthoate] | 
10 | 34.2 ± 5.1% | 34.2 ± 5.1% | COC(=O)c1cc(O)c2cc(NC(=O)[C@@H](N)CCCNC(=N)N)ccc2c1 [11c, Methyl (S)-6-(2-Amino-5-guanidinopentanamido)-4-hydroxy-2-naphthoate] | 

The remaining lines, values behind:

Row | Compound | remaining activity at 100 µM (PRMT1; [2]) | remaining activity at 100 µM (PRMT1; [3]) | also measured
11 | COC(=O)c1cc(O)c2cc(NC(=O)CCCCNC(=N)N)ccc2c1 [5a, Methyl 6-(5-Guanidinopentanamido)-4-hydroxy-2-naphthoate] | 35 ± 0.3% | 35 ± 0.3% | 
12 | COC(=O)c1cc(O)c2cc(NC(=O)CCCCCCNC(=N)N)ccc2c1 [5c, Methyl 6-(7-Guanidinoheptanamido)-4-hydroxy-2-naphthoate] | -0.49 ± 0.1% | -0.49 ± 0.1% | IC50 (PRMT1): 3.8 µM; LE (PRMT1): 0.27
13 | COC(=O)c1cc(O)c2cc(NC(=O)CCCCNC3=NCCN3)ccc2c1 [5g, Methyl 6-(5-((4,5-Dihydro-1H-imidazol-2-yl)amino)pentanamido)-4-hydroxy-2-naphthoate] | 122 ± 5.8% | 122 ± 5.8% | 
14 | N=C(N)NCCCCC(=O)Nc1ccc2cc(C(=O)O)cc(O)c2c1 [6a, 6-(5-Guanidinopentanamido)-4-hydroxy-2-naphthoic Acid] | 69.7 ± 2% | 69.7 ± 2% | 
15 | N=C(N)NCCCCCC(=O)Nc1ccc2cc(C(=O)O)cc(O)c2c1 [6b, 6-(6-Guanidinohexanamido)-4-hydroxy-2-naphthoic Acid] | 65.9 ± 1% | 65.9 ± 1% | 
16 | CNC(=N)NCCCCCC(=O)Nc1ccc2cc(C(=O)O)cc(O)c2c1 [6d, 4-Hydroxy-6-(6-(3-methylguanidino)hexanamido)-2-naphthoic Acid] | 50.4 ± 0.2% | 50.4 ± 0.2% | 
17 | CN(C)C(=N)NCCCCC(=O)Nc1ccc2cc(C(=O)O)cc(O)c2c1 [6e, 6-(5-(3,3-Dimethylguanidino)pentanamido)-4-hydroxy-2-naphthoic Acid] | 36.8 ± 0.3% | 36.8 ± 0.3% | 
18 | O=C(CCCCNC1=NCCN1)Nc1ccc2cc(C(=O)O)cc(O)c2c1 [6f, 6-(5-((4,5-Dihydro-1H-imidazol-2-yl)amino)pentanamido)-4-hydroxy-2-naphthoic Acid] | 25.1 ± 1.5% | 25.1 ± 1.5% | 
19 | C[S+](CC[C@H](N)C(=O)[O-])C[C@H]1O[C@@H](n2cnc3c(N)ncnc32)[C@H](O)[C@@H]1O (stereo partly drawn) [SAM, S-adenosyl-L-methionine, reference compound] |  |  | Kd [1]: 0.0096 µM; koff ([1]; SPR, immobilized PRMT4): 0.003 s⁻¹; kon ([1]; SPR, immobilized PRMT4, read-out: kon): 290000 M⁻¹ s⁻¹; τR ([1]; in vitro residence time, τ = 1/koff): 333.3 s
